Data as given in patent US20260130932A1, “NOVEL COMBINATION OF RIFAXIMIN AND CLARITHROMYCIN FOR TREATING MULTIDRUG-RESISTANT MYCOBACTERIUM ABSCESSUS” (priority 2022, published 2026).
Values joined by “and” are separate entries in the source; they are usually repeats but may differ in a detail not shown here. Identical values can stand only once. Like-named read-outs stand apart in the source and are kept apart here.

Legend:
M. abscessus ATCC 19977 [1] = conditions: positive control, earlier report; cited from earlier work
[2] = test system: M. avium ATCC 700898 (uninduced); assay: Checkerboard synergy assay; assay type: cell-based, Mycobacterium avium; conditions: for MIC90: Mycobacterium avium, ATCC700898
Method: (§1) With Rfx identified as the best potentiator of Clr activity, the interaction between Rfx and Clr was investigated by a checkerboard synergy approach using a broth microdilution method performed in 96-well plates. To provide a classification of the combined antibiotics based on the fractional inhibitory concentration index (FICI), this assay applied the combination of Clr and Rfx in concentrations of 0-64 μg/ml by 2-fold serial dilutions along the abscissa and ordinate, respectively. The FICI was calculated by summing the FIC of Rfx and the FIC of Clr. FIC of Clr is the MIC of Clr in the presence of Rfx divided by MIC of Clr alone. FIC of Rfx was similarly calculated.
As both M. abscessus and M. avium are the main organism groups causing pulmonary NTM (Lim A Y H, et al., 2018. BMC Pulm Med 18 (1):85; Tan Y, et al., 2018. BMC Pulm Med 18 (1): 168), the inventors tested the combination of Clr and Rfx against M. avium in the checkerboard assay as well. With a FICI of 0.563, the interaction between Clr and Rfx was additive in M. avium.

M. abscessus ATCC 19977 [3] = assay: Zebrafish embryo infection model; assay type: in vivo, zebrafish (Denio rerio)
From the text: To visualize the bacterial infection in the zebrafish (Denio rerio), a fluorescent strain of M. abscessus ATCC 19977 containing pJKD2893:mScarlet was generated. The pJKD2893 plasmid backbone was a kind gift from Professor Timothy Stinear. The gene expressing the fluorescent protein mScarlet was amplified from μMRE135-mScarlet (Addgene #118489, Mitja Remus-Emsermann lab). The amplification product was annealed by Gibson cloning with the pJKD2893 backbone amplified from a sample of pJKD2893. The resulting plasmid, termed pJKD2893:mScarlet, was electroporated into M. abscessus ATCC 19977 at a culture density equivalent to OD600˜20 using a BioRad GenePulser Xcell set at 2.5 kV, 25 uF, and 1,000Ω. […] Colonies carrying the plasmid were identified by their fluorescence. […]
Preparation of M. abscessus Inoculum and Zebrafish Infections Cultures of M. abscessus-pJKD2893:mScarlet in 7H9 media supplemented with 50 μg/ml kanamycin were grown to OD600 of 0.2-0.3 and concentrated to OD600 of 1 in 0.1% PBS-Tween-20. […] The actual CFU in the inoculum was determined a posteriori by injecting into 50 μl 0.1% PBS-Tween-20 and streaking on a plate. […]
Larvae were harvested to assess the bacterial load at 5 d post-infection using a slightly modified version of the Kremer lab method (Bernut et al., Antimicrob Agents Chemother 58: 4054-4063). […] Fluorescent colonies were counted after 5-6 days. […]

[4] = test system: M. abscessus ATCC 19977, M. abscessus strains M422 and M110; assay: Checkerboard synergy assay, statements on all 3 M. abscessus strains; assay type: cell-based, Mycobacterium abscessus
Method: (§2) For checkerboard synergy assay, 3 M. abscessus strains were used: M. abscessus ATCC 19977, M. abscessus strains M422 and M110, while bactericidal activity determination and the zebrafish study were performed with M. abscessus ATCC 19977. All three strains of M. abscessus harbor the inducible clarithromycin resistance-conferring erm(41) T28 sequevar. M. abscessus strain M422 and M110 were provided by Dr. Jeanette Teo, National University Hospital, Singapore (Chew K L, et al., 2017. J Med Microbiol 66: 1443-1447). M. abscessus ATCC 19977 and M. avium ATCC 700898 were acquired from American Type Culture Collection (ATCC).
as §1
(§3) To characterize the interaction between Clr and Rfx, checkerboard synergy assays were performed on pre-induced Clr-resistant M. abscessus. The fractional inhibitory concentration index (FICI) obtained from the checkerboard assay defines whether the interaction between the two compounds is either synergistic (FICI≤0.5), additive (0.5<FICI≤1.0), indifferent (1.0<FICI≤4.0), or antagonistic (FICI >4.0) (Noel D J, Keevil C W, Wilks S A. 2021. MBio 12).

[5] = test system: M. abscessus ATCC 19977 (pre-induced); assay: microbe, parasite or virus in culture; assay type: cell-based, Mycobacterium abscessus
Method: (§4) The FICI was calculated by summing the FIC of Rfx and the FIC of Clr. FIC of Clr is the MIC of Clr in the presence of Rfx divided by MIC of Clr alone. FIC of Rfx was similarly calculated.
as §3

M. abscessus strain M422 [6] = assay: Single-concentration assay with and without clarithromycin (hit validation); assay type: cell-based, Mycobacterium abscessus
Method: as §2
(§5) Primary screening was carried out in 96-well flat-bottom Corning Costar cell culture plates at 50 μM compound along with 4 μg/ml of Clr in a starting inoculum of pre-induced M. abscessus cells at OD600 of 0.005 in a final volume of 100 μl. The plates were put in an airtight container with moist paper towels and incubated for 4 d at 30° C. The cultures in the wells were resuspended before OD600 was read in a BioTek Synergy 4 plate reader.
To start the validation process, the top 10 compounds with >90% growth inhibition were chose to perform a single-concentration assay, with and without clarithromycin. Finally, the inventors obtained 7 compounds that potentiated Clr efficacy.

[7] = test system: M. abscessus strain M422 (pre-induced); assay: microbe, parasite or virus in culture; assay type: cell-based, Mycobacterium abscessus
Method: as §4, §3

[8] = test system: M. abscessus strain M110 (pre-induced); assay: microbe, parasite or virus in culture; assay type: cell-based, Mycobacterium abscessus
Method: as §4, §3

M. abscessus strain M422 [9] = assay: Primary compound screening against pre-induced bacterial cells; assay type: cell-based, Mycobacterium abscessus; conditions: 50 μM compound with 4 μg/ml Clr
Method: A total of 2,252 drugs/compounds comprising 1,576 FDA-approved drugs and 676 clinical compounds were purchased from MedChemExpress. The compounds were dissolved in dimethyl sulfoxide (DMSO) to a stock concentration of 10 mM. The Clr resistance in M. abscessus was induced for 3 days under 0.5 μg/ml of Clr before being subjected to compound screening.
as §5
A compound library consisting of 2,252 FDA-approved and clinical-stage drugs was screened against M. abscessus clinical strain M422. Bacteria were exposed to a sub-inhibitory concentration of Clr (0.5 μg/ml) for 3 days to induce Clr resistance. The test drugs were screened at 50 μM in the presence of 4 μg/ml of Clr to maintain the Clr-resistance phenotype.

[10] = Mycobacteroides abscessus, alone, read-out: MIC90 Rfx individually

With `COc1nc2ccc(Br)cc2cc1[C@@H](c1ccccc1)[C@@](O)(CCN(C)C)c1cccc2ccccc12` [Bedaquiline] as the molecule, how does the “efficacy against M. abscessus in zebrafish embryos” value (M. abscessus ATCC 19977 [1]) read?
Its value is “demonstrated efficacy”.

For `CC[C@H]1OC(=O)[C@H](C)[C@@H](O[C@H]2C[C@@](C)(OC)[C@@H](O)[C@H](C)O2)[C@H](C)[C@@H](O[C@@H]2O[C@H](C)C[C@H](N(C)C)[C@H]2O)[C@](C)(OC)C[C@@H](C)C(=O)[C@H](C)[C@@H](O)[C@]1(C)O` [Clarithromycin, clarithromycin], which MIC90 ([2]; read-out: MIC90) is on record?
Its MIC90 is less than 0.1 µg/mL.

What about the “effect on bacterial load” value (M. abscessus ATCC 19977 [3]; Clr alone up to 74.8 μg/ml (100 μM), immersion for 4 days (FIG. 6A)) of the same molecule?
The value was “unable to reduce bacterial load”.

What about the “reduction of the MIC of Clr when used in combination with Rfx” value ([4]; pre-induced M. abscessus strains (FIG. 4, Table 2)) of the same molecule?
The value was “at least 16 fold”.

And the “Percentage of bacterial growth” value ([5]; clarithromycin 1 μg/ml, partner antibiotic 0 μg/ml)?
Its value is 80.1% and 116.9% and 119.5% and 108.3% and 97.8% and 90.2% and 95.5%.

What about the “Percentage of bacterial growth” value ([5]; clarithromycin 2 μg/ml, partner antibiotic 0 μg/ml) of the same molecule?
Its value is 80.6% and 99.5% and 102.2% and 98.9% and 80.2% and 84.8% and 96.8%.

What about the “Percentage of bacterial growth” value ([5]; clarithromycin 4 μg/ml, partner antibiotic 0 μg/ml) of the same molecule?
Its value is 86.2% and 113.2% and 103.4% and 117.2% and 82.7% and 78.4% and 93.3%.

What about the “Percentage of bacterial growth” value ([5]; clarithromycin 8 μg/ml, partner antibiotic 0 μg/ml) of the same molecule?
The value was 76.2% and 102.8% and 93.2% and 108.1% and 71.4% and 97.4% and 92.9%.

And the “Percentage of bacterial growth” value ([5]; clarithromycin 16 μg/ml, partner antibiotic 0 μg/ml)?
Its value is 64.0% and 109.5% and 86.1% and 101.8% and 72.3% and 89.6% and 89.7%.

What about the “Percentage of bacterial growth” value ([5]; clarithromycin 32 μg/ml, partner antibiotic 0 μg/ml) of the same molecule?
Its value is 77.4% and 84.3% and 83.8% and 115.7% and 59.0% and 98.2% and 95.4%.

With `CO[C@H]1/C=C/O[C@@]2(C)Oc3c(C)c(O)c4c(O)c(c5c(nc6cc(C)ccn65)c4c3C2=O)NC(=O)/C(C)=C\C=C\[C@H](C)[C@H](O)[C@@H](C)[C@@H](O)[C@@H](C)[C@H](OC(C)=O)[C@@H]1C` [Rifaximin, rifaximin] as the molecule, how does the MIC90 ([2]; alone, read-out: MIC90 Rfx individually) read?
Its MIC90 is 0.03 µg/mL.

What about the MIC90 ([2]; read-out: MIC90) of the same molecule?
Its MIC90 is less than 0.1 µg/mL.

And the “MIC90 Rfx in combination” value ([2]; in combination with Clr)?
The value was 0.015 µg/mL.

What about the CFU reduction (M. abscessus ATCC 19977 [3]; 19.6 μg/ml Rfx alone, immersion for 4 days) of the same molecule?
The CFU reduction was “did not show any CFU reduction”.

And the “concentration at which significant synergistic effects with clarithromycin are shown” value ([4]; Table 2)?
The value was no less than 1 µg/mL.

What about the “MIC of Rfx” value ([4]; tested alone) of the same molecule?
The value was “extremely high”.

What about the “% inhibition with 0.5 μg/ml Clr” value (M. abscessus strain M422 [6]; compound combined with clarithromycin) of the same molecule?
Its value is 100%.

And the “% inhibition with compound alone” value (M. abscessus strain M422 [6]; without clarithromycin)?
The value was 85.6%.

What about the MIC90 ([5]; Mycobacteroides abscessus, ATCC19977, read-out: MIC90 Rfx individually) of the same molecule?
Its MIC90 is 128 µg/mL.

And the “MIC90 Rfx in combination” value ([5]; in combination with Clr)?
Its value is 4 µg/mL.

And the “MIC90 Rfx in combination” value [7]?
The value was 1 µg/mL.

And the MIC90 [7, 10]?
Its MIC90 is 16 µg/mL.

And the “MIC90 Rfx in combination” value [8]?
The value was 4 µg/mL.

What about the MIC90 [8, 10] of the same molecule?
Its MIC90 is 128 µg/mL.

Which “Percentage of bacterial growth” value ([5]; clarithromycin 0 μg/ml, partner antibiotic 1 μg/ml) does the source give for `CO[C@H]1/C=C/O[C@@]2(C)Oc3c(C)c(O)c4c(c3C2=O)C2=NC3(CCN(CC(C)C)CC3)NC2=C(NC(=O)/C(C)=C\C=C\[C@H](C)[C@H](O)[C@@H](C)[C@@H](O)[C@@H](C)[C@H](OC(C)=O)[C@@H]1C)C4=O` [rifabutin] here?
Its value is 105.5%.

And the “Percentage of bacterial growth” value ([5]; clarithromycin 0 μg/ml, partner antibiotic 2 μg/ml)?
Its value is 101.8%.

And the “Percentage of bacterial growth” value ([5]; clarithromycin 0 μg/ml, partner antibiotic 4 μg/ml)?
Its value is 99.4%.

What about the “Percentage of bacterial growth” value ([5]; clarithromycin 0 μg/ml, partner antibiotic 8 μg/ml) of the same molecule?
Its value is 100.2%.

And the “Percentage of bacterial growth” value ([5]; clarithromycin 0 μg/ml, partner antibiotic 16 μg/ml)?
The value was 79.1%.

What about the “Percentage of bacterial growth” value ([5]; clarithromycin 0 μg/ml, partner antibiotic 32 μg/ml) of the same molecule?
Its value is 9.2%.

And the “Percentage of bacterial growth” value ([5]; clarithromycin 0 μg/ml, partner antibiotic 64 μg/ml)?
Its value is 1.2%.

And the “hit status in primary screening” value (M. abscessus strain M422 [9])?
The value was “one of the top hits”.
